The values that follow come from patent US8603483B2, “Anti-integrin immunoconjugates, methods and uses” (Janssen Biotech, Inc., priority 2004, dated 2013).

Assay [1] concerns A375.S2 human melanoma xenografts. The assay is described as follows: Advanced s.c. A375.S2 melanoma xenograft in athymic rats, second experiment (FIG. 7). The following applies: i.v., days 14, 16, 18, 23, 31. Type of assay: in vivo, rat. The procedure: FIG. 7 is a graph showing the growth of human A375.S2 melanoma cells in athymic nude rats. On day 14, when the average tumor volumes reached 250 mm^3, the animals were randomly grouped and the first dose was administered. All animals were sacrificed on day 35. Tumor volumes were expressed as mean+/−SEM (n=9 or 10). The arrows indicate the days of intravenous drug administration.
(§1) The efficacy of CNTO 364 compared to CNTO95 against advanced s.c. A375.S2 human melanoma cells was investigated. CNTO 95-DM1 was prepared by ImmunoGen, Inc. Lot #1716-74B, stock concentration: 2.59 mg/ml. 5 mg/kg of CNTO 95-DM1 is equivalent to 74 μg/kg of DM1. CNTO 95 was from Centocor, Lot #5380-027, stock concentration=20 mg/ml. Human IgG-DM1: ChromPure human IgG was from Jackson ImmunoResearch Laboratories. Human IgG-DM1 was prepared by ImmunoGen, Lot #1762-50, stock concentration 2.8 mg/ml. 5 mg/kg of this conjugate is equivalent to 76 μg/kg of DM1. Maytansine: ImmunoGen, Lot #1710-121, stock concentration=16.38 μg/ml in PBS, pH 6.5. The stock solution of Maytansine was diluted with PBS to 15 and 7.5 μg/ml. PBS: ImmunoGen, pH 6.5. A375.S2 human melanoma cells were purchased from ATCC and subpassaged and stored in frozen aliquots at Centocor Cell Biology Services.
In a second experiment in rats, the average tumor volumes reached to 250 mm^3 on day 14. […]

In assay [2] the test system is A375.S2 human melanoma tumor. The assay is described as follows: A375.S2 human melanoma xenograft in nude mice, CNTO 95 from day 3. The following applies: 10 mg/kg i.p. three times per week. Type of assay: in vivo, mouse. The procedure:
FIG. 4 is a graph showing the change volume over time of a human melanoma tumor in nude mice and the effect of administering CNTO 95. Mice were inoculated subcutaneously with A375.S2 cells (3×10^6), and dosing with CNTO 95 or control was initiated three days later. Mice were treated with CNTO 95 or vehicle three times per week at a dose of 10 mg/kg i.p. Each data point is the mean tumor volume from 10 tumor-bearing animals (±SEM).
At day 26, CNTO 95 inhibited tumor growth by approximately 80% compared to tumors from control-treated animals.
Background: Xenograft models place foreign cells or tissue in a host animal.

Assay [3] deals with A375.S2 human melanoma tumor. The assay is described as follows: A375.S2 human melanoma xenograft in nude rats, weekly CNTO 95. The following applies: 10 mg/kg i.v. weekly, day 46, p=0.0007. Type of assay: in vivo, rat. The procedure:
FIG. 5 is a graph showing the change volume over time of a human melanoma tumor in nude rats and the effect of administering CNTO 95. Rats were inoculated subcutaneously with A375.S2 cells (3×106), and therapy with CNTO 95 or control was initiated three days later. Rats were treated with CNTO 95 or vehicle once per week at a dose of 10 mg/kg i.v. Each data point is the mean tumor volume from 9 tumor-bearing animals (±SEM).
For rat studies, female nude rats, aged 6-7 weeks, were purchased from Harlan. Twenty rats were inoculated s.c. with A375.S2 cells (3×10^6) in the flank region (day 1). On day 4, rats were randomly assigned to 2 groups. One group was injected i.v. with CNTO 95 (10 mg/kg in PBS), while the other group received an isotype-matched control IgG (10 mg/kg). Dosing was continued weekly thereafter until day 46 (total of 6 doses). Tumors were measured by calipers twice a week and tumor volumes calculated by the formula (length×width2)/2. Body weights were also recorded weekly.
In the rat, CNTO 95 is capable of blocking both rat angiogenic integrins and human tumor cell-expressed integrins. Weekly treatment of tumor-bearing nude rats with CNTO 95 at 10 mg/kg reduced tumor growth compared to the isotype-matched human IgG control MAb (FIG. 5).

For assay [4], the system named is tumor and endothelial cells. The assay can be described thus: In vitro functional assays on tumor and endothelial cells (summary). The format is cell-based. An excerpt:
In addition, CNTO 95 inhibited angiogenesis and tumor growth in vivo.

Assay [5] deals with angiogenesis. The assay can be described thus: Rat Matrigel angiogenesis model. The format is in vivo. Particulars: stimulated by bFGF and M21 melanoma cells.
Assay [6] concerns angiogenesis. The assay can be described thus: Primate angiogenesis model. The format is in vivo, cynomulgus monkeys. Particulars: stimulated by bFGF.
Assay [7] relates to A375.S2 human melanoma cells. The assay can be described thus: Advanced s.c. A375.S2 melanoma xenograft, first experiment (FIG. 6). The following applies: 10 mg/kg i.v., tumors 250-300 mm^3 at start. Type of assay: in vivo, athymic nude rats. The procedure:
as §1
Nine-week-old athymic nude rats were subcutaneously inoculated with A375.S2 human melanoma cells. On day 14, when average tumor volumes reached to 250-300 mm^3, animals were randomized to groups of 9/10 and treatment initiated. […] The arrows indicate intravenous drug administration.

For assay [8], the system named is HT29 human colon carcinoma cells. The assay can be described thus: ATPLite cytotoxicity, HT29 cells, 96 hrs. Type of assay: cell-based. Particulars: HT29, 96 hrs. The procedure: (§2) Human HT29 human colon carcinoma and human non-small cell lung carcinoma cells A549 (ATCC) were cultured in αMEM supplemented with 10% FBS at 37° C. in the presence of 5% CO2. Cells were seeded into white 96-well tissue culture plates (5000 cells/well) in culture medium and incubated for 16 hrs. Serial dilutions of immunoconjugates were added to each appropraite wells (0-20 μg/ml). Tissue culture plates were incubated at 37° C. for 96 hrs. ATPLIte assay was performed acording manufacturer's instruction. Data was analyzed with GraphPad Prism software using non-liner regression (Table 8) to determine the concentration at half maximal cell number as measured by luminosity.
Background: In ATP-based viability assays light output follows the ATP content of the culture.

The test system of assay [9] is A549 human non-small cell lung carcinoma cells. The assay is described as follows: ATPLite cytotoxicity, A549 cells, 96 hrs. Type of assay: cell-based. Particulars: A549, 96 hrs. The procedure: as §2
A further assay deals with HT29 human colon tumor. The assay can be described thus: HT29 colon carcinoma xenograft in athymic rats, comparison of conjugate linkages. Type of assay: in vivo, rat. The procedure:
An advanced tumor model using subcutaneously implanted HT29 human colon tumor-derived cells in immunocompromised rats was chosen to examine tolerability and potency of various linkages used to prepare immunoconjugates of CNTO 95.
CNTO 95-SPP-DM1 (CNTO 364), CNTO 95-SSNPB-DM4 (CNTO 365), CNTO 95-SSNPP-DM4 (CNTO 366), and the Mab F105 equivalents of these were prepared by ImmunoGen (Cambridge, Mass.). One hundred female athymic rats (4-6 weeks of age) were obtained from Harlan Laboratories.
Human HT29 (ATCC) were cultured in αMEM supplemented with 10% FBS at 37° C. in the presence of 5% CO2. Cells were prepared at a concentration of twenty-five million cells per ml in serum free αMEM for inoculation. Female athymic rats were inoculated with 5×10^6 HT29 cells subcutaneously (0.2 ml of 25×10^6 cells/ml) on the rear flank area (dorsal side, approximately 0.5 inches caudal to the last rib and 0.5 inches from the backbone). All rats were monitored twice per week for the appearance of tumor. The animals were stratified into 13 groups, 6 animals per group based on a mean tumor volume for each group of approximately 250 mm^3. Doses of immunoconjugates were calculated based on the contents of DM1 or DM4 in each conjugate. The L and H represent 175 and 350 μg/kg of DM1 or DM4, respectively. […] All measurements are expressed as the group mean+/−SEM (n=6).

For another assay, the target named is αvβ5 (Homo sapiens, UniProt P06756, V783I). The assay is described as follows: 125-I saturation binding on αvβ5 coated plates. The procedure:
The binding affinity values for purified integrins were compared to binding to receptors expressed on various cell lines using 125-I CNTO 95. A375S2 and M21 cells express both αvβ3 and αvβ5, HT-29 cells express αvβ5. For comparison, other Mabs capable of binding integrins were used. The Kd was calculated from a saturation binding curve in each case using multiple replicates of multiple lots of antibody.

In a further assay the target is alphaVbeta3 (Homo sapiens, UniProt P05106+P06756, V783I). The assay can be described thus: ELISA binding of purified hybridoma antibodies to alphaVbeta3. Particulars: ELISA on alphaVbeta3. An excerpt:
Human placenta (disrupted using a meat grinder) or M21 human melanoma cells expressing the αVβ3 integrin were extracted with OTG (Octylthioglucoside Pierce) in buffered saline as described (WO0212501). These preparations were emulsified with an equal volume of complete Freund's adjuvant and used to immunize 15 to 17 week old surgically castrated male mouse (GenPharm, Foster City, Calif.) on days 0 and 14 and in incomplete Freunds on days 28, 48, and 56. Three days later splenocytes were harvested from a mouse showing a titer of 1:1280 against alphaVbeta3 using a solid phase EIA format. Fusion was carried out at a 1:1 ratio of murine myeloma cells (SP2/0) to viable spleen cells. Hybridoma supernatants were screened using the EIA microplate assay or EIA capture assay and selected antibody producing lines expanded and retested for the desired properties.
ELISA analysis confirmed that purified antibody from two hybridomas, C371A (also called Mab CNTO 95) and C372A, bind alphaVbeta3 in a concentration-dependent manner. Fifty percent binding is achieved at 0.07 and 0.7 μg/mL for C372A and CNTO 95 respectively.
A general note: An ELISA detects its analyte on a solid surface through an enzyme-linked reagent.

Chain of αvβ5 (P06756 31-889 V783I limits assumed): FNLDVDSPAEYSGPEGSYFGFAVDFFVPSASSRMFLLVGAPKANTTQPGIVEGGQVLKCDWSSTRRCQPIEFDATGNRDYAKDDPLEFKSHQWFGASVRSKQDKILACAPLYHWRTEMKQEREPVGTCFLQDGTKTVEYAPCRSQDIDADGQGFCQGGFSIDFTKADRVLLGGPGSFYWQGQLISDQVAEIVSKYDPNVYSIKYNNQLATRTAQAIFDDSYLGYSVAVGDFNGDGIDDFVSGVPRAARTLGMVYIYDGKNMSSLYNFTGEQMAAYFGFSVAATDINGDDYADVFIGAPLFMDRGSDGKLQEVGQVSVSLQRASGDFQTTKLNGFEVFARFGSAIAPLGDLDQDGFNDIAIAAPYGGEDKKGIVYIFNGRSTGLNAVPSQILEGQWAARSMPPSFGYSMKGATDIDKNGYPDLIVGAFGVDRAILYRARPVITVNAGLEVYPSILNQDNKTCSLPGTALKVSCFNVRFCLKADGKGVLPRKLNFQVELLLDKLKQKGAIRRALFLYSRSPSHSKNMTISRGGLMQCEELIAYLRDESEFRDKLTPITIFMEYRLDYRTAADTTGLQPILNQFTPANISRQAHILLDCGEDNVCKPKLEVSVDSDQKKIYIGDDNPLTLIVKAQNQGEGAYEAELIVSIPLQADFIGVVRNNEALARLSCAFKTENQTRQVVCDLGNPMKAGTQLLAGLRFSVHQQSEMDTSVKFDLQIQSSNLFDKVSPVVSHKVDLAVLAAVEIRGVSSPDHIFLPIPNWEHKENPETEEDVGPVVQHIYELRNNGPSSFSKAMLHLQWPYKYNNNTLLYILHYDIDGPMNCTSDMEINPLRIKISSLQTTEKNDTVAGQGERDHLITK
Chain of αvβ5 (P06756 891-1048 limits assumed): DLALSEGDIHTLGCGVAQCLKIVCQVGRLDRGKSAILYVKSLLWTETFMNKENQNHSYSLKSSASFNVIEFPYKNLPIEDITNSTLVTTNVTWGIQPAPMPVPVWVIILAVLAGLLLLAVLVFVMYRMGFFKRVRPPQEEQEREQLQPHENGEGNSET
Chain of αvβ5 (P18084 24-799 partner): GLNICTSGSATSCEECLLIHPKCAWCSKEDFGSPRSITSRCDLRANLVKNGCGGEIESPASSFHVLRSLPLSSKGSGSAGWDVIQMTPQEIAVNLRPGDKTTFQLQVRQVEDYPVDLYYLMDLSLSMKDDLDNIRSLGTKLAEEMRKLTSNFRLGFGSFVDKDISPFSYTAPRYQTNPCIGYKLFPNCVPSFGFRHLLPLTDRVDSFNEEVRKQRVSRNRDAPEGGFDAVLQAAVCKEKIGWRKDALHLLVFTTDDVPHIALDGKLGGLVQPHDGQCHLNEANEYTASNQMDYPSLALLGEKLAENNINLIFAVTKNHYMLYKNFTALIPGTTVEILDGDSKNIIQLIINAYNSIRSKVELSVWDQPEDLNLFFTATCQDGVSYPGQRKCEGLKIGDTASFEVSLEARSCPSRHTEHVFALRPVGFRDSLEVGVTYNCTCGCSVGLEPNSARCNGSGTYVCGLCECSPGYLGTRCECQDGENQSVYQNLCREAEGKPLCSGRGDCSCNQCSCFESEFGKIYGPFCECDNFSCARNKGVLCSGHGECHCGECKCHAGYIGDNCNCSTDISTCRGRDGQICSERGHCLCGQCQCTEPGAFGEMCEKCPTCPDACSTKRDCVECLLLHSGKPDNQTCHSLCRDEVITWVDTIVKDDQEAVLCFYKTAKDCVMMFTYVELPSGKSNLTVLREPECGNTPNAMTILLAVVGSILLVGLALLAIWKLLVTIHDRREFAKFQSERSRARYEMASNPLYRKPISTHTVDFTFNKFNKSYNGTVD
Chain of alphaVbeta3 (P06756 31-889 V783I limits assumed): as the sequence (P06756 31-889 V783I limits assumed) above
Chain of alphaVbeta3 (P06756 891-1048 limits assumed): as the sequence (P06756 891-1048 limits assumed) above
Chain of alphaVbeta3 (P05106 27-788): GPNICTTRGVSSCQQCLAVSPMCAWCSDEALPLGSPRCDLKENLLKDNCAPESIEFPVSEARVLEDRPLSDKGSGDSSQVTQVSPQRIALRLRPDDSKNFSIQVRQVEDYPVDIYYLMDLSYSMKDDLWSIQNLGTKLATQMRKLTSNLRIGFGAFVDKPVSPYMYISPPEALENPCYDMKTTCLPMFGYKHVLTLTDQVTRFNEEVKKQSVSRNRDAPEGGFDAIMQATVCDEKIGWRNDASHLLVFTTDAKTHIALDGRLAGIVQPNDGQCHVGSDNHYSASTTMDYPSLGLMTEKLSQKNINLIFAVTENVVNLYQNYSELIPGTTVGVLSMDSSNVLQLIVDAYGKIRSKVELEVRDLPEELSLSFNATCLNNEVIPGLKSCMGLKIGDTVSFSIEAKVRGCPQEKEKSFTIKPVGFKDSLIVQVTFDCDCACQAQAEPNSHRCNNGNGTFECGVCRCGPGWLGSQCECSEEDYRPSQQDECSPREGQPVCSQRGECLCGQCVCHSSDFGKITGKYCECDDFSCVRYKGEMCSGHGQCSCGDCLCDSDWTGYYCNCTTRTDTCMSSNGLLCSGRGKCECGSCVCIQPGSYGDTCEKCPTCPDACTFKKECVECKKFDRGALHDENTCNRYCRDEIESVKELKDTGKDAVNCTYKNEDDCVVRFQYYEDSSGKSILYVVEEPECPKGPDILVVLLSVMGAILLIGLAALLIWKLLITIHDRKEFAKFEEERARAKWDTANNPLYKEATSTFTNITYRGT

Regarding `COc1cc2cc(c1Cl)N(C)C(=O)C[C@H](OC(=O)[C@H](C)N(C)C(C)=O)[C@]1(C)O[C@H]1[C@H](C)[C@@H]1C[C@@](O)(NC(=O)O1)[C@H](OC)/C=C/C=C(\C)C2` [Maytansine, reference compound], the “effect on xenograft tumors (control compounds)” value in assay [1] is given as “did not show any significant effects”.

As for “CNTO 95: fully human anti-alphaV integrin monoclonal antibody, human variable and IgG1 kappa constant regions”, the “inhibition of tumor growth compared to control-treated animals” value in [2] (day 26) is reported as “approximately 80%”. For the same compound, in assay [2] (day 26, P=0.0005), the “tumor growth vs control” value is on record as “significantly inhibited growth of tumors”. In addition, in [3], the “final tumor size vs isotype-matched control IgG” value is recorded as “significant reduction in final tumor size”. Moreover, the “effect on adhesion, migration, proliferation and invasion” value in assay [4] is “inhibited adhesion, migration, proliferation and invasion”. Moreover, the effect on angiogenesis entry in the assay with angiogenesis [5] and in the assay with angiogenesis [6] was “blocked angiogenesis” in each case. Further, the “effect on tumor growth / average tumor volume” value in assay [7] is listed as “had no effect”. The “effect on xenograft tumors (control compounds)” value in assay [1] is “did not show any significant effects”.

For “CNTO 365: CNTO 95 conjugated to maytansinoid DM4 with SSNPB or SPDB linker; methyl groups 0:2”, the “EC50, concentration at half maximal cell number” value is 0.24 µg/mL in assay [8] and 0.3 µg/mL in assay [9]. Besides, in the assay with HT29 human colon tumor (high dose (350 microgm/kg of DM4), single injection), the “complete regression, animals out of 6” value is 4. Moreover, the “regressed preformed colon tumors, animals out of 6” value in the assay on HT29 human colon tumor (low dose (175 microgm/kg of DM4), Day 7 and Day 21) is reported as 2.

Take “abciximab: other Mab capable of binding integrins, used for comparison”: the “binding on αvβ5 coated plates” value in the assay with αvβ5 is “no binding and no dose-response”.

With c7E3 IgG: anti-alphaIIbeta3 antibody, in the assay with alphaVbeta3, the “Fifty percent (maximal) binding concentration” value came to 0.07 µg/mL.
